Test [1] relates to Escherichia coli. The test can be described thus: Antibacterial activity against efflux-deficient Escherichia coli 1260 expressing transducant lig251 gene encoding temperature sensitive ligA. Format: functional.
Test [2] deals with Escherichia coli. The test can be described thus: Antibacterial activity against wild-type TolC-positive Escherichia coli 1410 expressing ligA gene. Format: functional.
Test [3] is described as follows: Inhibition of Escherichia coli NAD+-dependent DNA ligase.
Test [4] concerns the target DNA ligase 1 (Homo sapiens, UniProt P18858). The test can be described thus: Inhibition of human ATP-dependent DNA ligase 1.
For test [5], the system named is Escherichia coli. Put plainly: Antibacterial activity against TolC-positive Escherichia coli 1201 expressing lig251 gene. In kind it is functional.
Test [6] concerns Staphylococcus aureus. The test can be described thus: Antibacterial activity against Staphylococcus aureus ATCC 29213. Format: functional.
In test [7] the test system is Haemophilus influenzae. The test can be described thus: Antibacterial activity against Haemophilus influenzae ATCC 51907. Format: functional.
Test [8] relates to Streptococcus pneumoniae. The test can be described thus: Antibacterial activity against Streptococcus pneumoniae ATCC 10015. Format: functional.

Converted amounts (≈) assume the structure as drawn. Some results are limits rather than exact numbers.

Sequence of DNA ligase 1 (P18858 whole entry): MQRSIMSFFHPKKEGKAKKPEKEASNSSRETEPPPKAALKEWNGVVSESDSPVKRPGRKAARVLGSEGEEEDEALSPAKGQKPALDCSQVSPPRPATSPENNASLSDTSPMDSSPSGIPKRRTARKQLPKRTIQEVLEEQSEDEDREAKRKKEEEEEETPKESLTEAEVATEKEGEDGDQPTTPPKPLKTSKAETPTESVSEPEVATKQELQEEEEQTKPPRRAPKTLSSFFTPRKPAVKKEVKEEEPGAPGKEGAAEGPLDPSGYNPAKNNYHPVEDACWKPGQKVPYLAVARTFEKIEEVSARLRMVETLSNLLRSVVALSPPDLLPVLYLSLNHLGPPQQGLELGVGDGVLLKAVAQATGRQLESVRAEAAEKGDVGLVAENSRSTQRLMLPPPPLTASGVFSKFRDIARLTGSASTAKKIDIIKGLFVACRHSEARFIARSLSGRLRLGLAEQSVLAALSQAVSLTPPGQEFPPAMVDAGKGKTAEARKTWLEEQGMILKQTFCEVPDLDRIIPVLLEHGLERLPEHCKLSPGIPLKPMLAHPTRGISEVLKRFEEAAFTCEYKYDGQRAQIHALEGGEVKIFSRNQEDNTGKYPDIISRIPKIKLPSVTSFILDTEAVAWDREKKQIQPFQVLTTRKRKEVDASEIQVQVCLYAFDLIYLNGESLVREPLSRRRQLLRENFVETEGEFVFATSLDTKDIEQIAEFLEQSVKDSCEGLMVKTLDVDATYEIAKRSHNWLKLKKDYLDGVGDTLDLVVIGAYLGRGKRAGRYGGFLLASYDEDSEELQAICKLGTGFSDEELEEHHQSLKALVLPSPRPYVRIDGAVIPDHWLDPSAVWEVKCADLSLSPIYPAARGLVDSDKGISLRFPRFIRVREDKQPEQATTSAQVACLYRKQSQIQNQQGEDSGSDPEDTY

`NC(=O)c1cnc(OC2CCCC2)nc1N`: the MIC in test [1] was 9.4 µM (≈ 2.09 µg/mL); in test [2] it was > 100 µM; in test [5], 100 µM (≈ 22.2 µg/mL); in test [6], > 100 µM. In addition, the half-maximal inhibitory concentration (IC50) – broadly, the concentration that gives 50% inhibition – in test [3] was 610 nM; in test [4], > 55000 nM.
For `NC(=O)c1cnc(OC2CCCCC2)nc1N`, the MIC was 9.8 µM (≈ 2.32 µg/mL) in test [1], > 100 µM in test [2], > 100 µM in test [5] and > 100 µM in test [6]. The IC50 in test [3] is 560 nM; in test [4], > 55000 nM.
Regarding `C[C@H]1CCCC[C@H]1Oc1ncc(C(N)=O)c(N)n1`, the MIC in test [1] was 3.1 µM (≈ 0.776 µg/mL); in test [2], > 100 µM; in test [5] it was > 100 µM; in test [6], > 100 µM. Besides, the figures for the half-inhibitory concentration (IC50) in test [3] and in test [4] were 240 nM and > 55000 nM, respectively.
With `CC(C)Oc1ncc(C(N)=O)c(N)n1`, the MIC in test [1] was 15 µM (≈ 2.94 µg/mL); in test [2], > 100 µM; in test [5], 27 µM (≈ 5.3 µg/mL); in test [6], > 100 µM. Also, the IC50 was 410 nM in test [3] and > 55000 nM in test [4].
With `NC(=O)c1cnc(OCCF)nc1N`, the MIC in test [1] is 28 µM (≈ 5.6 µg/mL); in test [2], > 100 µM; in test [5], 23 µM (≈ 4.6 µg/mL); in test [6], > 100 µM. The IC50 in test [3] was 920 nM; in test [4], > 55000 nM.
In the case of `CC(Oc1ncc(C(N)=O)c(N)n1)C(=O)O` (stereo not drawn), the MIC in test [1], in test [2], in test [5] and in test [6] was > 100 µM each time. The 50% inhibitory concentration (IC50) in test [3] was > 10000 nM; in test [4], > 55000 nM.
Take `NC(=O)c1cnc(SC2CCCC2)nc1N`: the MIC in test [1] was 33 µM (≈ 7.86 µg/mL); in test [2], > 100 µM; in test [5], > 100 µM; in test [6] it was > 100 µM. It took 6900 nM to reach half-maximal inhibition in test [3] (IC50).
As for `NC(=O)c1cnc(NC2CCCC2)nc1N`, the MIC in test [1], in test [2], in test [5] and in test [6] was > 100 µM throughout. Also, in test [3], the IC50 is > 55000 nM.
As to `NC(=O)c1cnc(CCC2CCCC2)nc1N`, the MIC in test [1], in test [2], in test [5] and in test [6] was > 100 µM in each case. Further, in test [3], the IC50 is > 55000 nM.
Consider `CNc1nc(OCC2CCCC2)ncc1C(N)=O`, for which the MIC in test [1], in test [2], in test [5] and in test [6] was > 100 µM throughout. The IC50 in test [3] is > 55000 nM.
On to `COCCNc1nc(OCC2CCCC2)ncc1C(N)=O`, for which the MIC in test [1], in test [2], in test [5] and in test [6] was > 100 µM throughout. In addition, the IC50 in test [3] is > 55000 nM.
For the molecule `Nc1nc(OCC2CCCC2)ncc1C(=O)NCC1CCCO1` (stereo not drawn), the MIC in test [1], in test [2], in test [5] and in test [6] was > 100 µM in each case. Also, in test [3], the concentration for half-maximal inhibition (IC50) is > 55000 nM.
Consider `Nc1nc(OCC2CCCC2)ncc1C(=O)NCCCN1CCCC1=O`, for which the MIC in test [1], in test [2], in test [5] and in test [6] was > 100 µM throughout. Further, the IC50 in test [3] is > 55000 nM.
Take `Nc1nc(OC2CCCC2)ncc1S(N)(=O)=O`: the MIC in test [1], in test [2], in test [5] and in test [6] was > 100 µM each time. The IC50 in test [3] is > 40000 nM.
With `N=C(N)c1cnc(OC2CCCC2)nc1N`, the MIC is 100 µM (≈ 22.1 µg/mL) in test [1], > 100 µM in test [2], > 100 µM in test [5] and > 100 µM in test [6]. In test [3], the IC50 was 8100 nM.
As for `NC(=O)c1c(N)nc(OC2CCCC2)nc1O[C@H]1CCC[C@H]1O`, the MIC in test [1] was 9.4 µM (≈ 3.03 µg/mL); in test [2], > 100 µM; in test [5], > 100 µM; in test [6], > 100 µM. Also, the results for the half-maximal inhibitory concentration (IC50) in test [3] and in test [4] were 120 nM and > 55000 nM, respectively.
As for `NC(=O)c1c(N)nc(OC2CCCC2)nc1O[C@H]1CCCC[C@@H]1O`, the MIC was 1.6 µM (≈ 0.538 µg/mL) in test [1], > 100 µM in test [2], > 100 µM in test [5] and 45 µM (≈ 15.1 µg/mL) in test [6]. The IC50 is 46 nM in test [3] and > 55000 nM in test [4].
Turning to `NC(=O)c1c(N)nc(OC2CCCC2)nc1OC1CCCCC1F` (stereo not drawn), the MIC in test [1] was 1.2 µM (≈ 0.406 µg/mL); in test [2] it was > 100 µM; in test [5] it was > 100 µM; in test [6], > 100 µM. Besides, the values for the IC50 in test [3] and in test [4] were 19 nM and > 55000 nM, respectively.
With `NC(=O)c1c(N)nc(OC2CCCC2)nc1Oc1ccccc1F`, the MIC in test [1] was 9.4 µM (≈ 3.12 µg/mL); in test [2] it was > 100 µM; in test [5] it was > 100 µM; in test [6], > 100 µM. Besides, the 50% inhibitory concentration (IC50) in test [3] was 64 nM; in test [4], > 55000 nM.
Turning to `NC(=O)c1c(N)nc(OC2CCCC2)nc1Oc1cccc(CCC(=O)O)c1`, the MIC in test [1] was 1.2 µM (≈ 0.464 µg/mL); in test [2] it was > 100 µM; in test [5], > 100 µM; in test [6] it was 83 µM (≈ 32.1 µg/mL). In addition, the IC50 in test [3] is 78 nM; in test [4] it was > 55000 nM.
In the case of `NC(=O)c1c(N)nc(OC2CCCC2)nc1O[C@H]1CCCC[C@@H]1CO`, the MIC in test [1] was 1.2 µM (≈ 0.421 µg/mL); in test [2], > 100 µM; in test [5] it was > 100 µM; in test [6] it was 100 µM (≈ 35 µg/mL). Besides, the values for the 50% inhibitory concentration (IC50) in test [3] and in test [4] were 14 nM and > 55000 nM, respectively.
On to `COc1cc(NC[C@H]2CCCC(Oc3nc(OC4CCCC4)nc(N)c3C(N)=O)C2)cc(OC)c1` (stereo partly drawn), for which the MIC in test [1] is 1.6 µM (≈ 0.777 µg/mL); in test [2], > 100 µM; in test [5], > 100 µM; in test [6] it was > 100 µM. Further, the values for the IC50 in test [3] and in test [4] were 80 nM and > 55000 nM, respectively.
`CC(C)Oc1nc(N)c(C(N)=O)c(O[C@H]2CCC[C@@H]2O)n1`: the MIC is 4.7 µM (≈ 1.39 µg/mL) in test [1], > 100 µM in test [2], > 100 µM in test [5] and > 100 µM in test [6]. For the same molecule, the half-maximal inhibitory concentration (IC50) is 630 nM in test [3] and > 55000 nM in test [4].
With `CC(C)Oc1nc(N)c(C(N)=O)c(OC2CCCCC2)n1`, the MIC in test [1] was 6.3 µM (≈ 1.85 µg/mL); in test [2] it was > 100 µM; in test [5] it was > 100 µM; in test [6] it was > 100 µM. Also, the results for the IC50 in test [3] and in test [4] were 61 nM and > 55000 nM, respectively.
Turning to `C[C@H]1CC[C@H](Oc2nc(N)c(C(N)=O)c(O[C@H]3CCC[C@@H]3O)n2)CC1`, the MIC in test [1] is 1.2 µM (≈ 0.421 µg/mL); in test [2], > 100 µM; in test [7], 12.5 µM (≈ 4.38 µg/mL); in test [5] it was > 100 µM; in test [6], 100 µM (≈ 35 µg/mL); in test [8], 75 µM (≈ 26.3 µg/mL). The concentration for half-maximal inhibition (IC50) in test [3] is 180 nM; in test [4] it was > 55000 nM.

The values above are taken from ChEMBL document CHEMBL2029313, “Design, synthesis and biological evaluation of potent NAD+-dependent DNA ligase inhibitors as potential antibacterial agents. Part I: aminoalkoxypyrimidine carboxamides” (Bioorg Med Chem Lett, 2012).
